Laboratory results from publication PMC10167348, “Structural mechanisms of TRPM7 activation and inhibition” (Nature Communications, 2023).
Values joined by “and” are separate entries in the source; they are usually repeats but may differ in a detail not shown here. Equal entries are not always repeated.

Tests used:
[1] = target: T1, TRPM7 WT (Mus musculus, UniProt Q923J1); assay: Aequorin-based Ca2+ influx assay, activation by naltriben; format: cell-based; details: for TRPM7 activation, fold: replicate values
T1 construct: expressed in transfected cells; host or cells: HEK 293T
T1 sequence (Q923J1 whole entry): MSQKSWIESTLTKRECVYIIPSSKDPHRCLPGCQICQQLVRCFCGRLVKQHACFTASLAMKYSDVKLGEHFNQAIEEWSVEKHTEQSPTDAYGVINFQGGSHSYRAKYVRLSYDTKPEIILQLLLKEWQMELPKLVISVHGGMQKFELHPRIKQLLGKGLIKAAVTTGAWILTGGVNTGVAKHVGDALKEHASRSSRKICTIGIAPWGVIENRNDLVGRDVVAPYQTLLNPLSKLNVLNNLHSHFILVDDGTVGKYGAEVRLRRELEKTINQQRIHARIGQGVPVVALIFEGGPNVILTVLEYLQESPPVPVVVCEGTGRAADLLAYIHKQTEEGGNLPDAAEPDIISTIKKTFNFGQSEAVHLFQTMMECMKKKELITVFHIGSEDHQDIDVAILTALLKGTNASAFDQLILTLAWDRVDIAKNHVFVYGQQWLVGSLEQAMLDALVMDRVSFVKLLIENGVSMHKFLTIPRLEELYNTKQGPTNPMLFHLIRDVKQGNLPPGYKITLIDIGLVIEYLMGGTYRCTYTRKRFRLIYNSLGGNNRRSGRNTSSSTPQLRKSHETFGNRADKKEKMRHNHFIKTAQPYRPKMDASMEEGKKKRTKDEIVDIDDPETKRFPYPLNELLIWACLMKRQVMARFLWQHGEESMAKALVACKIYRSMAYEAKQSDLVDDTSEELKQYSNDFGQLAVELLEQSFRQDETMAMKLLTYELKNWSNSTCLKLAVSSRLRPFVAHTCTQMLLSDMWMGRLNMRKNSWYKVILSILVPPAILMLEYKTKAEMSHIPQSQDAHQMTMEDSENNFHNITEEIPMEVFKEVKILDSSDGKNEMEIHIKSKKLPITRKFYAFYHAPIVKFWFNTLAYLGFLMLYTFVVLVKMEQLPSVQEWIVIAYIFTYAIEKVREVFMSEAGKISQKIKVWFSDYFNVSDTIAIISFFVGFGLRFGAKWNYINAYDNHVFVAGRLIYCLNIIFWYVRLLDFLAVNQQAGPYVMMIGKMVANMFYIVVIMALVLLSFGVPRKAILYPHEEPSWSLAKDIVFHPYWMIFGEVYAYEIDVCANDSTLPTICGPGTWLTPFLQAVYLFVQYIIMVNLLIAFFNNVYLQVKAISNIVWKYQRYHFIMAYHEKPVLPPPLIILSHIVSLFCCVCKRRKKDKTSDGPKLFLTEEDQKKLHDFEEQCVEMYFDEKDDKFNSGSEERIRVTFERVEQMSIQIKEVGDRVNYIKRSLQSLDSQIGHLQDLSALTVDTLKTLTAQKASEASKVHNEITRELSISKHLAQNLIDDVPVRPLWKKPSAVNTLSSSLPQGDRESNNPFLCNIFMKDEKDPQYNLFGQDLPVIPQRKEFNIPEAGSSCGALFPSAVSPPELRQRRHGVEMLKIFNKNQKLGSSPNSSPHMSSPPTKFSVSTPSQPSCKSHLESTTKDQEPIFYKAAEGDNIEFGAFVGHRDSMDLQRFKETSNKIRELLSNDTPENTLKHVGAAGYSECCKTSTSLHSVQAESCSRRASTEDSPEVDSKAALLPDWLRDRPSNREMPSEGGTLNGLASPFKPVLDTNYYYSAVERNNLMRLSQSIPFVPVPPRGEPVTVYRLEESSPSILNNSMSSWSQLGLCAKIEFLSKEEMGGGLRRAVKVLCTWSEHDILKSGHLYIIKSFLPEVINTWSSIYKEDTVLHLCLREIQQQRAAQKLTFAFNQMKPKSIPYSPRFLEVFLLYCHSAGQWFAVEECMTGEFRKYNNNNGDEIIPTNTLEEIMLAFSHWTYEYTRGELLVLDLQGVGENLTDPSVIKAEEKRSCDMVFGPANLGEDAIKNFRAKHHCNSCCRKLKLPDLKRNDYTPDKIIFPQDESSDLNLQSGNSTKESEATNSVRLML
Procedure: (§1) Measurements of [Ca^2+]i were performed as reported previously with several modifications[2],[52],[54]. HEK 293T cells (mycoplasma test negative, ATCC #CRL3216) were maintained at 37 °C and 5% CO2 in DMEM supplemented with 10% fetal calf serum, 100 µg/ml streptomycin and 100 U/ml penicillin (all from Thermo Fisher Scientific). Cells cultured in six-well plates (~60% confluence) were transfected with 2 µg/dish Trpm7 plasmid DNA and 0.1 µg/dish pG5A plasmid DNA encoding eGFP fused to Aequorea victoria aequorin, using Lipofectamine 2000 (Thermo Fisher Scientific). Twenty-four hours after transfection, the cells were washed with Mg^2+-free HEPES-buffered saline (Mg^2+-free HBS) containing 140 mM NaCl, 6 mM KCl, 0.5 mM CaCl2, 10 mM HEPES (pH 7.4) and 5 mM glucose, and mechanically resuspended in the Mg^2+-free HBS. For reconstitution of aequorin, cell suspensions were incubated with 5 µM coelenterazine (Biaffin GmbH) in the Mg^2+-free HBS for 30 min at room temperature. Cells were washed twice by centrifugation at 600 rpm for 5 min (Heraeus Pico 17 microcentrifuge, Thermo Fisher Scientific), resuspended in the Mg^2+-free HBS and aliquoted into 96-well plates (1 × 10^5 cells per well). Luminescence was detected at room temperature using a FLUOstar OPTIMA microplate reader (BMG LABTECH GmbH). To monitor the NS8593- and VER155008-induced inhibition of TRPM7-mediated Ca^2+ influx, the extracellular concentration of Ca^2+ was increased to 5 mM by injecting the CaCl2-containing Mg^2+-free HBS in the absence or presence of the inhibitors. […] To study activation by naltriben, TRPM7-transfected cells were exposed to Mg^2+-free HBS containing different concentrations of the agonist. The experiments were terminated by lysing cells with 0.1% (v/v) Triton X-100 in the Mg^2+-free HBS to record the total bioluminescence. The bioluminescence rates (counts/s) were analyzed at 1-s intervals and calibrated as [Ca^2+]i values using the following equation:1 p[Ca^2+]i=0.332588(−log(k))+5.5593 where k represents the rate of aequorin consumption, i.e., counts/s divided by the total number of counts.
(§2) To determine the IC50 values for NS8593 and VER155008 (EC50 for naltriben), the data were fitted with the following logistic equation:2 Ec=Emin+Emax+Emin/1+c^h/IC50^h where E(c) is the functional effect at the concentration c of the compound, Emin is the minimal effect, Emax is the maximal effect, IC50 (EC50) is the concentration of the compound that produces the half-maximal effect, and h is the Hill coefficient. Fitting of dose-response curves was performed using GraphPad Prism 8.4.0. Data are presented as the mean ± SEM.

[2] = target: T2, TRPM7-L671A/N752K (Mus musculus, UniProt Q923J1, L671A/N752K); assay: as above; format: cell-based
T2 construct: expressed in transfected cells; host or cells: HEK 293T
T2 sequence (Q923J1 whole entry L671A/N752K): as the sequence (Q923J1 whole entry) above, with L671A, N752K counted along it
Procedure: as §1, §2

[3] = target: T3, TRPM7-M741A (Mus musculus, UniProt Q923J1, M741A); assay: as above; format: cell-based; details: for TRPM7 activation, fold: replicate values
T3 construct: expressed in transfected cells; host or cells: HEK 293T
T3 sequence (Q923J1 whole entry M741A): as the sequence (Q923J1 whole entry) above, with M741A counted along it
Procedure: as §1, §2

[4] = target: T4, TRPM7-N752K (Mus musculus, UniProt Q923J1, N752K); assay: as above; format: cell-based
T4 construct: expressed in transfected cells; host or cells: HEK 293T
T4 sequence (Q923J1 whole entry N752K): as the sequence (Q923J1 whole entry) above, with N752K counted along it
Procedure: as §1, §2

[5] = target: T5, TRPM7-L671A (Mus musculus, UniProt Q923J1, L671A); assay: Whole-cell patch-clamp recordings in HEK 293T cells; format: cell-based; details: 50 and 100 μM NTB
T5 construct: expressed in transfected cells; host or cells: HEK 293T
T5 sequence (Q923J1 whole entry L671A): as the sequence (Q923J1 whole entry) above, with L671A counted along it
Procedure: (§3) Patch-clamp experiments were performed as reported previously, with a few modifications[69],[70]. HEK 293T cells grown in 35-mm dishes to ~60% confluence were transiently transfected with Trpm7 cDNAs in the pIRES2-EGFP vector (2 µg/dish). Patch-clamp experiments were conducted 18–22 h after transfection with cells displaying EGFP fluorescence. Whole-cell currents were recorded using an EPC10 patch-clamp amplifier and PatchMaster software (Version V2x69, Harvard Bioscience). Voltages were corrected for a liquid junction potential of 10 mV. Currents were elicited by voltage ramps from –100 mV to +100 mV over 50 ms acquired at 0.5 Hz. The inward and outward current amplitudes were measured at –80 mV and +80 mV and were normalized to the cell size as pA/pF. The capacitance was measured using the automated capacitance cancellation function of EPC10. The standard extracellular solution contained 140 mM NaCl, 2.8 mM KCl, 1 mM CaCl2, 2 mM MgCl2, 10 mM HEPES-NaOH, and 11 mM glucose (all from Sigma-Aldrich). Solutions were adjusted to pH 7.2 using an FE20 pH meter (Mettler Toledo) and to 290 mOsm using a Vapro 5520 osmometer (Wescor Inc). […] For the experiment with naltriben, the intracellular solution contained 120 mM Cs-glutamate, 8 mM NaCl, 10 mM Cs-EGTA, 1.5 mM MgCl2, and 10 mM HEPES-CsOH. The intracellular solution was also adjusted to pH 7.2 and 290 mOsm. Data are presented as the mean ± SEM Unless indicated otherwise, data were compared by unpaired t-test (GraphPad Prism 8.4.0). For multiple comparisons, ordinary one-way ANOVA (GraphPad Prism 8.4.0) was used. Significance was accepted at P ≤ 0.05.

[6] = target: T4, TRPM7-N752K; assay: as above; format: cell-based; details: 50 and 100 μM NTB
Procedure: as §3

[7] = target: T6, wild-type TRPM7 (Mus musculus, UniProt Q923J1); assay: as above; format: cell-based; details: amplitude at +80 mV
T6 construct: expressed in transfected cells; host or cells: HEK 293T
T6 sequence (Q923J1 whole entry): as the sequence (Q923J1 whole entry) above
Procedure: as §3

[8] = test system: TRPM7-N1098Q; parameters: method as in Schmidt et al., 2022, PMID: 35389104; details: ref Schmidt et al., 2022, PMID: 35389104; cited from earlier work
[9] = Solubility of the compound (authors' remark); details: mM range could not be examined

## Oc1ccc2c3c1O[C@H]1c4oc5ccccc5c4C[C@@]4(O)[C@@H](C2)N(CC2CC2)CC[C@]314 [Naltriben, naltriben]
[1]
  EC50: 65.8 ± 12.4 µM
[1]; WT, [Naltriben] 100 µM
  TRPM7 activation, fold: 3.40 fold and 2.89 fold and 2.30 fold and 2.40 fold and 3.03 fold and 3.14 fold
[1]; WT, [Naltriben] 200 µM
  TRPM7 activation, fold: 4.23 fold and 3.70 fold and 3.66 fold and 2.99 fold and 3.63 fold and 3.89 fold
[1]; WT, [Naltriben] 300 µM
  TRPM7 activation, fold: 4.35 fold and 3.85 fold and 3.80 fold and 3.47 fold and 3.56 fold and 4.23 fold
[1]; WT, [Naltriben] 400 µM
  TRPM7 activation, fold: 4.51 fold and 3.90 fold and 3.86 fold and 3.52 fold and 3.70 fold and 4.17 fold
[1]; WT, [Naltriben] 500 µM
  TRPM7 activation, fold: 4.41 fold and 4.17 fold and 4.05 fold and 3.42 fold and 4.20 fold and 4.10 fold
[1]; WT, agonist, mean ± SEM
  Hill coefficient: 1.23 ± 0.25
[2]
  EC50: 230 ± 48.9 µM
[2]; N752K/ L671A, agonist, mean ± SEM
  Hill coefficient: 2.82 ± 1.38
[3]
  EC50: 85 ± 6.51 µM
[3]; M741A, [Naltriben] 10 µM
  TRPM7 activation, fold: 0.99 fold and 1.09 fold and 1.07 fold (2×)
[3]; M741A, [Naltriben] 20 µM
  TRPM7 activation, fold: 1.10 fold and 1.30 fold and 1.28 fold and 1.20 fold
[3]; M741A, [Naltriben] 30 µM
  TRPM7 activation, fold: 1.39 fold and 1.61 fold and 1.52 fold and 1.40 fold
[3]; M741A, [Naltriben] 40 µM
  TRPM7 activation, fold: 1.53 fold and 1.69 fold and 1.74 fold and 1.64 fold
[3]; M741A, [Naltriben] 50 µM
  TRPM7 activation, fold: 1.77 fold and 2.03 fold and 1.91 fold and 1.96 fold
[3]; M741A, [Naltriben] 100 µM
  TRPM7 activation, fold: 2.28 fold and 2.65 fold and 2.56 fold and 2.47 fold
[3]; M741A, [Naltriben] 200 µM
  TRPM7 activation, fold: 2.83 fold and 3.14 fold and 3.02 fold and 2.90 fold
[3]; M741A, [Naltriben] 300 µM
  TRPM7 activation, fold: 3.11 fold and 3.30 fold and 3.34 fold and 3.20 fold
[3]; M741A, [Naltriben] 400 µM
  TRPM7 activation, fold: 3.18 fold and 3.51 fold and 3.48 fold and 3.46 fold
[3]; M741A, [Naltriben] 500 µM
  TRPM7 activation, fold: 3.39 fold and 3.58 fold (2×) and 3.45 fold
[3]; M741A, agonist, mean ± SEM
  Hill coefficient: 1.37 ± 0.11
[4]
  EC50: 191 ± 18 µM
[4]; N752K, agonist, mean ± SEM
  Hill coefficient: 1.91 ± 0.24
[5]
  sensitivity of TRPM7 currents to agonist, mutant vs WT: reduced sensitivity
[6]
  sensitivity of TRPM7 currents to agonist, mutant vs WT: reduced sensitivity
[7]; 500 μM NTB, 170-s application
  whole-cell currents in the presence of agonist: dramatically increased
[8]
  response of the N1098Q variant to the agonist: did not respond
[9]
  solubility: limited solubility

## c1ccc2c(c1)CCC[C@H]2Nc1nc2ccccc2[nH]1 [NS8593]
[7]; 10 µM inhibitor, 450-s exposure
  amplitude of TRPM7-mediated currents in the presence of inhibitor: greatly reduced
